According to patent EP0400330A1, “Oxidation hair dyes” (Wella Aktiengesellschaft, priority 1989, dated 1990):

Legend:
Salmonella typhimurium [1] = assay: Ames mutagenicity test of the developer substance; type: cell-based
Source text: (§1) Der große und überraschende technische Fortschritt, der bei der Verwendung von 2-(2,5-Diaminophenyl)ethanol mit den vorstehend genannten Kupplersubstanzen erzielt werden kann, liegt vielmehr in den physiologischen Eigenschaften begründet.

CHO-Zellen = assay: Chromosome aberration test in vitro (CA-Test); type: cell-based
Source text: as §1

Mouse Lymphoma = Mouse Lymphoma Test (point mutation in vitro); type: cell-based; conditions: Punktmutation in vitro
Source text: as §1

[2] = Sister-Chromatide-Exchange-Test (SCE-Test); type: cell-based
Source text: as §1

[3] = system: Salmonella typhimurium-Stämmen TA97, TA98 und TA100; assay: Ames test of dyed hair strands; type: cell-based; parameters: key: +: mutagen; (+): schwach mutagen; -: nicht mutagen; conditions: hair dyed 30 Minuten at 40 Grad Celsius, in Anwesenheit von S9-Mix
Source text: Versuchsbedingungen: Haarsträhnchen aus 30-50 Haaren werden mit einem Mittel nach Beispiel 1, bei dem die Kupplersubstanz jeweils im äquimolaren Verhältnis zur Entwicklersubstanz enthalten war, getränkt. Die Strähnen wurden anschließend 30 Minuten lang bei 40 Grad Celsius im Klimaschrank aufbewahrt, sodann gründlich mit Wasser gespült und schließlich getrocknet. Die so gefärbten Haar wurden nun im 2,5 cm lange Stücke geschnitten und nach der Methodik von B.N. Ames an Salmonella typhimurium-Stämmen TA97, TA98 und TA100 in Anwesenheit von S9-Mix geprüft.

Salmonella typhimurium [4] = assay: Ames test of hair dye solutions under oxidative conditions; conditions: hair dye solution containing the developer substance, unter oxidativen Bedingungen
[5] = Mutagenicity test battery (Ames, CA-Test, Mouse Lymphoma Test, SCE-Test), individual test not specified; type: cell-based; conditions: in some of the tests Ames, not said which
Source text: as §1

[6] = Sensitising property (test not described)
Source text: Das 2-(2,5-Diaminophenyl)ethanol wird seit einiger Zeit als Bestandteil von Oxidationshaarfärbemitteln in der Patentliteratur erwähnt. Als möglicher Bestandteil von Oxidationshaarfärbemitteln ist es zum Beispiel in der eigenen europäischen Offenlegungsschrift 0 166 155 sowie in den eigenen deutschen Offenlegungsschriften 3 625 916, 3 627 398 und 3 706 565 sowie auch in der DE-OS 3 545 371 aufgeführt. Ferner fällt das 2-(2,5-Diaminophenyl)ethanol unter eine allgemeine Formel für 1-Hydroxyalkyl-2,5-diaminobenzolverbindungen, welche als Entwicklersubstanzen für Oxidationshaarfärbemittel in der eigenen europäischen Offenlegungsschrift 0 007 537 empfohlen werden. Die dort mehrfach konkret genannte Verbindung 1-Hydroxymethyl-2,5-diaminobenzol (2,5Diaminobenzylalkohol) hat sich jedoch als sensibilisierend erwiesen. Die ausgezeichnete Eignung der Entwicklersubstanz 2-(2,5-Diaminophenyl)-ethanol in Kombination mit den vorstehend genannten Kupplersubstanzen zur Lösung der gestellten Aufgabe wurde bisher nicht erkannt. Dementsprechend sind die erfindungsgemäßen EntwicklersubstanzKupplersubstanz-Kombinationen in keiner dieser Druckschriften beschrieben.
Die konkrete Darstellung des 2-(2,5-Diaminophenyl)ethanols ist bisher ebenfalls weder beschrieben noch hat diese Entwicklersubstanz Eingang in die Haarfärbepraxis gefunden. […]

[7] = Kupplersubstanz 2-Methylresorcin, äquimolar to the developer
[8] = Kupplersubstanz 3,4-Methylendioxyphenol, äquimolar to the developer
[9] = Kupplersubstanz 3-Aminophenol, äquimolar to the developer
[10] = Kupplersubstanz Resorcin, äquimolar to the developer

| SMILES | Mutagenität im Mutagenitätstest nach Ames (Salmonella typhimurium [1]; in Abwesenheit von Wasserstoffperoxid) | Mutagenität im Mutagenitätstest nach Ames (Salmonella typhimurium [1]; in Anwesenheit von Wasserstoffperoxid) | Mutagenität im Chromosomenaberrationstest an CHO-Zellen in vitro (CA-Test) (CHO-Zellen) | Mutagenität im Mouse Lymphoma Test (Mouse Lymphoma) | Mutagenität im Sister-Chromatide-Exchange-Test (SCE-Test) [2] | Amesteste von gefärbten Haarsträhnen [3, 7] | Amesteste von gefärbten Haarsträhnen [3, 8] | Amesteste von gefärbten Haarsträhnen [3, 9] | Amesteste von gefärbten Haarsträhnen [3, 10] | Amesteste von gefärbten Haarsträhnen ([3]; ohne Kupplersubstanz) | mutagene Wirkung von Haarfärbelösungen im Amestest (Salmonella typhimurium [4]) | Mutagenität in einigen dieser Teste [5] | sensibilisierende Eigenschaften [6] |
| --- | --- | --- | --- | --- | --- | --- | --- | --- | --- | --- | --- | --- | --- |
| Nc1ccc(N)c(CCO)c1 [2-(2,5-Diaminophenyl)ethanol] | keinerlei Mutagenität | keinerlei Mutagenität | keinerlei Mutagenität | keinerlei Mutagenität | keinerlei Mutagenität | - | - | - | - | - | nicht mutagen |  |  |
| Nc1ccc(N)cc1 [p-Phenylendiamin, reference compound] |  |  |  |  |  | + | + | (+) | (+) | + | mutagenes Potential |  |  |
| Nc1ccc(N)c(CO)c1 [2,5-Diaminobenzylalkohol, 1-Hydroxymethyl-2,5-diaminobenzol] |  |  |  |  |  |  |  |  |  |  |  | mutagenes Potential | sensibilisierend |
